Results taken from patent US10450274B2, “Quinoline compounds, preparation methods thereof, and uses thereof as urate transporter inhibitor drug” (HINOVA PHARMACEUTICALS INC., priority 2015, dated 2019).

The compounds below were run against T1, hURAT1 (Homo sapiens, UniProt Q96S37) (assay: Inhibitory activity against URAT1: 14C-labelled uric acid uptake in HEK-293t cells stably expressing hURAT1). Conditions: HEK-293t/hURAT1 cells, 14C uric acid uptake, 5 minutes at room temperature; Ref Cpd 2, 83, Ref Cpd 3 and 129 are averages of head-to-head tests; read-out: IC50 (nM) of hURAT1 inhibitory activity.
T1 sequence (Q96S37 1-553): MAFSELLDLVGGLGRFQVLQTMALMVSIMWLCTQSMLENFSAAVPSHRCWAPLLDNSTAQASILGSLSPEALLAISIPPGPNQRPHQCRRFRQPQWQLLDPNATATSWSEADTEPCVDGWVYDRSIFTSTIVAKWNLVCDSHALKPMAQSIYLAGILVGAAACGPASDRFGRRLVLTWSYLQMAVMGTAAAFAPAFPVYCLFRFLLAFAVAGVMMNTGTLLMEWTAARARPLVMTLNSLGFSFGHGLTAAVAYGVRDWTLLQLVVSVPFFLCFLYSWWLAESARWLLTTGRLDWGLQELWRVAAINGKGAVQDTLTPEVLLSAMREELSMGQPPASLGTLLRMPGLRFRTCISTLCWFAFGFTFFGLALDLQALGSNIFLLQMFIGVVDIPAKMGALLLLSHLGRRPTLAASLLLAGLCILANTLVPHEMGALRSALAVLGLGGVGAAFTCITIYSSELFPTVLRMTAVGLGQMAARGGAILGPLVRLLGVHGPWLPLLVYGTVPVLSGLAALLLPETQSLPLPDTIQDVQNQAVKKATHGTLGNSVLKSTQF
Assay type: cell-based
Description: • Test example: Determination of the inhibitory activity of compounds according to the present invention against URAT1 Experimental Materials • FBS (Invitrogen, Cat. No. 10099141) • Trypsin (Invitrogen, Cat. No. 25200056) • DPBS (Invitrogen, Cat. No. 14190250) • DMEM (Invitrogen, Cat. No. 10564) • Penicillin-Streptomycin (Invitrogen, Cat. No. 15070-063) • TransIT-293 Transfection Reagent (MIRUS BIO, Cat. No. MIR2706) • Opti-MEM® I Reduced Serum Medium (Invitrogen, Cat. No. 31985-070) • URAT1 plasmid (Genecopoeia, Cat. No. EX-T4563-M03) • Uric acid [8-14C] (ARC, Cat. No. ARC0513-250UCI) • Ultima Gold™ XR (PerkinElmer, Cat. No. 6013111) • Benzbromarone (J&K Scientific, Cat. No. 3562-84-3) • D-Gluconic acid sodium salt (Aladdin, Cat. No. 527-07-1) • Potassium D-gluconate (Aladdin, Cat. No. 299-27-4) • Calcium gluconate (Aladdin, Cat. No. 299-28-5) • DMSO (Sigma, Cat. No. D2650) • Tube, 15 ml (Greiner, Cat. No. 07030115) • Tube, 50 ml (BD Falcon, Cat. No. 352098) • Poly-D-lysine 96-well microplates (BD, Cat. No. 356461) • Isoplate-96 Microplate (PERKIN ELMER, Cat. No. 6005040) Experimental Method:
Cell Culture: • 1. The HEK-293t cells that expressed the stable expression of hURAT1 were cultured in DMEM medium containing 10% FBS and 1% P/S, and incubated overnight in the incubator at 37° C. under 5% carbon dioxide. • 2. the culture medium was removed, and the cells were washed with PBS, and then the pancreatin was added to digest for 2 minutes. After the cell is separated from the dish, 10 ml of medium was added to terminate digestion. • 3. The cells were placed into a centrifugal apparatus and centrifugated for 2 minutes at the speed of 1000 rpm, followed by the addition of fresh 10 mL medium to resuspend the cells, and calculate the number of cells. The number of cells was adjusted to 4×10^5 cells/mL. • 4. the above counted cells were inoculated into the 96-well plate at 100 μL/well. • 5. The 96-well plate with inoculated cells was placed in a 37° C. cell incubator and cultivated overnight.
The uric acid absorption experiment labeled with isotope C14: • 1. 5 mL of Cl-free HBSS buffer was added to a 15 mL centrifuge tube, followed by the addition of the uric acid labeled with C14, and the concentration of uric acid was 2 uCi/ml. • 2. The medium in the 96-well plate that was previously cultivated overnight was removed, and the plate was washed three times with […] preheated Cl-free HBSS buffer. • 3. The buffer in the well-washed 96-well plate was removed. • 4. […] Cl-free HBSS buffer containing C-14 labeled uric acid was added into each well in the cleaned 96-well plate, and then DMSO solution of the compound that needs to be tested was added. • 5. After the 96-well plate stood for 5 minutes at room temperature, all the liquid in it was removed. • 6. […] precooled Cl-free HBSS buffer was added to wash the plate three times. • 7. After the remained liquid in the plates was completely removed, 50 μL cell lysis was added to each well, and the plate was agitated on the mixer at a speed of 600 revolutions/min for 10 minutes. • 8. After 50 μL Ultima Gold™ XR scitillation cocktail fluid was added, the plate was continued to agitate for 10 minutes. The well-agitated plate was sealed, and the data was read on MicroBeta Trilux. • 9. The test compound was dissolved in DMSO, and DMSO at the same concentration was added to the HEK293/hURAT1 cell well without test compounds. […] The radiation value obtained from the well containing DMSO is considered to be 100% of the cell uptake. The IC50 values of compounds can be calculated by the inhibition rate at different concentrations.
Among them, reference compound 1 was synthesized according to the method described in patent WO 2011/159839 A2. Reference compound 2 and reference compound 3 were synthesized according to the method described in patent WO 2014/183555 A1, and they were head-to-head tested with compounds 83 and 129 respectively under the same conditions.

| IC50 | Compound |
| --- | --- |
| 133 nM | CCC(CC)(Sc1ccnc2ccc(-c3ccncc3)cc12)C(=O)O [Compound 119, 2-(6-(pyridin-4-yl)quinolin-4-ylthio)-2-ethylbutanoic acid] |
| 98 nM | CCC(CC)(Sc1ccnc2ccc(-c3ccnc(OC)c3)cc12)C(=O)O [Compound 116, 2-(6-(2-methoxypyridin-4-yl)quinolin-4-ylthio)-2-ethylbutanoic acid] |
| 6000 nM | CCC(Sc1ccnc2ccc(Br)cc12)C(=O)O (stereo not drawn) [Compound 24, 2-(6-bromoquinolin-4-ylthio)butanoic acid] |
| 486 nM | CC(C)(Sc1ccnc2ccc(C3CC3)cc12)C(=O)O [Compound 1, 2-(6-cyclopropylquinolin-4-ylthio)-2-methylpropanoic acid] |
| 325 nM | CC(C)(Sc1ccnc2ccc(-c3ccccc3C(F)(F)F)cc12)C(=O)O [Compound 37] |
| 4300 nM | CC(C)C(Sc1ccnc2ccc(Br)cc12)C(=O)O (stereo not drawn) [Compound 94, 2-(6-bromoquinolin-4-ylthio)-3-methylbutanoic acid] |
| 159 nM | CC(C)(Sc1ccnc2ccc(Br)cc12)C(=O)O [Compound 22, 2-((6-bromoquinolin-4-yl)thio)-2-methylpropanoic Acid] |
| 360 nM | CCC(CC)(Sc1ccnc2ccc(-c3ccnc(C)c3)cc12)C(=O)O [Compound 121, 2-(6-(2-methylpyridin-4-yl)-quinolin-4-ylthio)-2-ethylbutanoic acid] |
| 21 nM | COc1cccc(-c2ccc3nccc(SC(C)(C)C(=O)O)c3c2)c1 [Compound 20, 2-(6-(3-methoxyphenyl)-quinolin-4-ylthio)-2-methylpropanoic acid] |
| 36 nM | 2-(6-(2-fluoropyridin-4-yl)-quinolin-4-ylthio)-2-ethylbutanoic acid [Compound 118] |
| 523 nM | CCCC(CCC)(Sc1ccnc2ccc(-c3cccc(OCC)c3)cc12)C(=O)O [Compound 108, 2-(6-(3-ethoxy-phenyl)-quinolin-4-ylthio)-2-propylpentanoic acid] |
| 812 nM | CC(C)(Sc1ccnc2ccc(-c3ccccc3F)cc12)C(=O)O [Compound 25, 2-(6-(2-fluorophenyl)-quinolin-4-ylthio)-2-methylpropanoic acid] |
